Like-named read-outs stand apart in the source and are kept apart here.
Tests used:
[1] = target: GSK3b (GST-full length GSK3b) (Homo sapiens (Human), UniProt P49841); test: GSK3b TR-FRET kinase assay; format: biochemical
Procedure, shortened: (§1)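 Compound preincubated 30 min, then 1 nM GST-full-length GSK3α or GSK3b run 100 min at ambient temperature with 200 nM biotinylated, S645-prephosphorylated glycogen synthase 631-650 peptide in Tris pH 7.5, MgCl2, DTT, BSA, 1% DMSO. ATP 4 μM (α) or 2 μM (β), or 1 mM. EDTA-quenched; Tb-anti-pSer641/streptavidin-d2 TR-FRET 665/615 ratio gave IC50.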

[2] = target: GSK3α (GST-full length GSK3α) (Homo sapiens (Human), UniProt P49840); test: GSK3α TR-FRET kinase assay; format: biochemical
Procedure, shortened: as §1

[3] = 1 nM GSK3b, 2 μM ATP, 30 minute preincubation, Table 16, read-out: GSK3-B TR-FRET BIOCHEMICAL (TR-FRET), IC50
[4] = 1 nM GSK3α, 4 μM ATP, 30 minute preincubation, Table 16, read-out: GSK3-A TR-FRET BIOCHEMICAL (TR-FRET), IC50
[5] = read-out: GSK3-B (TR-FRET 1 mM ATP), GMean, IC50, 1 mM ATP, geometric mean
[6] = read-out: GSK3-A (TR-FRET 1 mM ATP), GMean, IC50, 1 mM ATP, geometric mean
[7] = 1 nM GSK3b, 2 μM ATP, 30 minute preincubation, Table 16, read-out: GSK3-B TR-FRET BIOCHEMICAL (TR-FRET)
[8] = 1 nM GSK3α, 4 μM ATP, 30 minute preincubation, Table 16, read-out: GSK3-A TR-FRET BIOCHEMICAL (TR-FRET)
[9] = GSK3-B (TR-FRET 1 mM ATP), GMean, IC50, 1 mM ATP, geometric mean
[10] = GSK3-A (TR-FRET 1 mM ATP), GMean, IC50, 1 mM ATP, geometric mean
[11] = 1 nM GSK3b, 2 μM ATP, 30 minute preincubation, read-out: GSK3-B TR-FRET BIOCHEMICAL (TR-FRET), IC50
[12] = 1 nM GSK3α, 4 μM ATP, 30 minute preincubation, read-out: GSK3-A TR-FRET BIOCHEMICAL (TR-FRET), IC50

Sequence of GSK3b (GST-full length GSK3b) (P49841 whole entry): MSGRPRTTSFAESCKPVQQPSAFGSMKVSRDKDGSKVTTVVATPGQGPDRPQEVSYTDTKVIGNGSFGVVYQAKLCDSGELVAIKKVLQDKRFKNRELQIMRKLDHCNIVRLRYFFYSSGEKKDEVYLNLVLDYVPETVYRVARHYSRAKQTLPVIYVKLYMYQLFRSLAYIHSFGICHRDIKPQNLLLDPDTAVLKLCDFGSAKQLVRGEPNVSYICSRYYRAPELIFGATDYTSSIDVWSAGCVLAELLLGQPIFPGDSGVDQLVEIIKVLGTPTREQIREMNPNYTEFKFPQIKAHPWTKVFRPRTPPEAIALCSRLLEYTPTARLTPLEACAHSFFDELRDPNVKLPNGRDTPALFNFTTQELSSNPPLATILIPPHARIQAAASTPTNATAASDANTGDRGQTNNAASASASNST
Sequence of GSK3α (GST-full length GSK3α) (P49840 whole entry): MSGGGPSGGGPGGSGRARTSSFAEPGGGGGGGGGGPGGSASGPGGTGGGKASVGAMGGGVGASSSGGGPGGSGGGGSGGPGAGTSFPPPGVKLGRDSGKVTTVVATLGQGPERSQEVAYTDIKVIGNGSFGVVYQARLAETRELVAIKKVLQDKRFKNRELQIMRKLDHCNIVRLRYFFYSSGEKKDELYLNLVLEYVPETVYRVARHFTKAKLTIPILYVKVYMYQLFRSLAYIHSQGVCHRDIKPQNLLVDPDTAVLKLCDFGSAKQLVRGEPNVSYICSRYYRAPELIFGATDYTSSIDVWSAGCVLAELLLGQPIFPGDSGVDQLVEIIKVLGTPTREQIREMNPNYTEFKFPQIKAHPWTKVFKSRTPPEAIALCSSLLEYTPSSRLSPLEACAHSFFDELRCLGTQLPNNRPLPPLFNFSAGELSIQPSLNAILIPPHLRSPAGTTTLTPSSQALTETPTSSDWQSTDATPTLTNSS

| IC50 [1, 3] [µM] | IC50 [2, 4] [µM] | IC50 [1, 7] [µM] | IC50 [2, 8] [µM] | SMILES | also measured |
| --- | --- | --- | --- | --- | --- |
| ≤ 0.1 | ≤ 0.1 |  |  | CCC1(c2cccc(S(=O)(=O)CC)c2)C2=C(CC(C)(C)CC2=O)Nc2n[nH]cc21 (stereo not drawn) [Compound 889579] |  |
| 1 to 5 | 0.1 to 1 |  |  | CCC1(c2cccc(N3CCOCC3)c2)C2=C(CC(C)(C)CC2=O)Nc2n[nH]c(C)c21 (stereo not drawn) [Compound 889582] |  |
| > 5 | 1 to 5 |  |  | CC(=O)N1CC[C@@]2(C1)C1=C(CC(C)(C)CC1=O)Nc1n[nH]cc12 [Compound 889583] |  |
| 1 to 5 | 0.1 to 1 |  |  | CC(=O)N1CC[C@]2(C1)C1=C(CC(C)(C)CC1=O)Nc1n[nH]cc12 [Compound 889584] |  |
| 0.1 to 1 | 0.1 to 1 |  |  | CCC1(c2cccc(N3CCC3)c2)C2=C(CC(C)(C)CC2=O)Nc2n[nH]cc21 (stereo not drawn) [Compound 889631] |  |
| > 5 | > 5 |  |  | CC[C@]1(c2cccc(N3CCC3)c2)C2=C(CC(C)(C)CC2=O)Nc2n[nH]cc21 [Compound 889632] |  |
| ≤ 0.1 | ≤ 0.1 |  |  | CCC1(c2cccc(N3CCCc4ncccc43)c2)C2=C(CC(C)(C)CC2=O)Nc2n[nH]cc21 (stereo not drawn) [Compound 889639] | IC50 [1, 5]: 0.1 to 1 µM; IC50 [2, 6]: ≤ 0.1 µM |
|  |  | 0.1 to 1 | ≤ 0.1 | CC1(C)CC(=O)C2=C(C1)Nc1n[nH]cc1[C@]21C[C@H](c2ccncc2)C1 [Compound 889664] |  |
|  |  | ≤ 0.1 | ≤ 0.1 | CC1(C)CC(=O)C2=C(C1)Nc1n[nH]cc1[C@]21C[C@@H](c2ccncc2)C1 [Compound 889665] | IC50 [1, 9]: 0.1 to 1 µM; IC50 [2, 10]: ≤ 0.1 µM |
| ≤ 0.1 | ≤ 0.1 |  |  | CCC1(c2cccc(N(C(C)=O)C(C)C)c2)C2=C(CC(C)(C)CC2=O)Nc2n[nH]cc21 (stereo not drawn) [Compound 893305] |  |
| ≤ 0.1 | ≤ 0.1 |  |  | CCC1(c2cccc(N(CCOC)C(C)=O)c2)C2=C(CC(C)(C)CC2=O)Nc2n[nH]cc21 (stereo not drawn) [Compound 893306] |  |
|  |  | 0.1 to 1 | ≤ 0.1 | O=C1CC2(CCCCC2)CC2=C1C1(CCOCC1)c1c[nH]nc1N2 [Compound 893307] |  |
|  |  | 0.1 to 1 | ≤ 0.1 | O=C1CC2(CCCC2)CC2=C1C1(CCOCC1)c1c[nH]nc1N2 [Compound 893308] |  |
| 1 to 5 | 0.1 to 1 |  |  | O=C1CC(c2ccccc2)CC2=C1C1(CCOCC1)c1c[nH]nc1N2 (stereo not drawn) [Compound 893309] |  |
|  |  | ≤ 0.1 | ≤ 0.1 | COc1ccccc1S(=O)(=O)N1CCC2(CC1)C1=C(CC(C)(C)CC1=O)Nc1n[nH]cc12 [Compound 893310] | IC50 [1, 9]: 0.1 to 1 µM; IC50 [2, 10]: ≤ 0.1 µM |
|  |  | ≤ 0.1 | ≤ 0.1 | CC1(C)CC(=O)C2=C(C1)Nc1n[nH]cc1C21CCN(S(=O)(=O)c2ccc(F)cc2)CC1 [Compound 893311] | IC50 [1, 9]: 1 to 5 µM; IC50 [2, 10]: 0.1 to 1 µM |
|  |  |  |  | CC1(C)CC(=O)C2=C(C1)Nc1n[nH]cc1C21CCC2(CC2)CC1 [Compound 893312] | IC50 [1, 11]: ≤ 0.1 µM; IC50 [2, 12]: ≤ 0.1 µM |
| > 5 | > 5 |  |  | CN1CCCC2(CC1)C1=C(CC(C)(C)CC1=O)Nc1n[nH]cc12 (stereo not drawn) [Compound 893313] |  |
| > 5 | 1 to 5 |  |  | CC(=O)N1CC2(C1)C1=C(CC(C)(C)CC1=O)Nc1n[nH]cc12 [Compound 893314] |  |
| > 5 | > 5 |  |  | CC1(C)CC(=O)C2=C(C1)Nc1n[nH]cc1C21CN(C(=O)c2ccccc2)C1 [Compound 893315] |  |
| 0.1 to 1 | ≤ 0.1 |  |  | C[C@@H]1C[C@H](C)C(=O)C2=C1Nc1n[nH]cc1C21CCOCC1 [Compound 893316] |  |
|  |  | 0.1 to 1 | 0.1 to 1 | C[C@H]1CCC[C@]2(C1)C1=C(CC(C)(C)CC1=O)Nc1n[nH]cc12 [Compound 893318] |  |
|  |  | 0.1 to 1 | 0.1 to 1 | C[C@H]1CCC[C@@]2(C1)C1=C(CC(C)(C)CC1=O)Nc1n[nH]cc12 [Compound 893319] |  |
|  |  | ≤ 0.1 | ≤ 0.1 | C[C@@H]1CCC[C@@]2(C1)C1=C(CC(C)(C)CC1=O)Nc1n[nH]cc12 [Compound 893320] |  |
| 0.1 to 1 | ≤ 0.1 |  |  | CCC1(c2cc(-c3ccncc3)ccc2C)C2=C(CC(C)(C)CC2=O)Nc2n[nH]cc21 (stereo not drawn) [Compound 893323] | IC50 [1, 5]: > 5 µM; IC50 [2, 6]: 0.1 to 1 µM |
| > 5 | 1 to 5 |  |  | CC[C@]1(c2cc(-c3ccncc3)ccc2F)C2=C(CC(C)(C)CC2=O)Nc2n[nH]cc21 [Compound 893324] |  |
|  |  | 0.1 to 1 | 0.1 to 1 | CC1(C)CC(=O)C2=C(C1)Nc1n[nH]cc1C21CCS(=O)(=O)CC1 [Compound 896013] |  |

| IC50 [1, 3] [µM] | IC50 [2, 4] [µM] | IC50 [1, 7] [µM] | IC50 [2, 8] [µM] | SMILES | also measured |
| --- | --- | --- | --- | --- | --- |
|  |  |  |  | CCC1(c2cccc(C(F)(F)F)c2)C2=C(CCN(Cc3ccccc3)C2=O)Nc2n[nH]cc21 (stereo not drawn) [Compound 897749] | IC50 [1, 11]: > 5 µM; IC50 [2, 12]: 0.1 to 1 µM |
|  |  | ≤ 0.1 | ≤ 0.1 | C[C@@H]1CC[C@]2(C1)C1=C(CC(C)(C)CC1=O)Nc1n[nH]cc12 [Compound 897750] |  |
|  |  | 0.1 to 1 | ≤ 0.1 | C[C@H]1CC[C@@]2(C1)C1=C(CC(C)(C)CC1=O)Nc1n[nH]cc12 [Compound 897751] |  |
|  |  | 0.1 to 1 | ≤ 0.1 | CC1(C)CC(=O)C2=C(C1)Nc1n[nH]cc1C21Cc2ccccc2C1 [Compound 897752] |  |
|  |  |  |  | CC1(C)CC(=O)C2=C(C1)Nc1n[nH]cc1[C@@]21CCOC2(CCC2)C1 [Compound 897755] | IC50 [1, 11]: 1 to 5 µM; IC50 [2, 12]: 1 to 5 µM |
|  |  |  |  | CC1(C)CC(=O)C2=C(C1)Nc1n[nH]cc1[C@]21CCOC2(CCC2)C1 [Compound 897756] | IC50 [1, 11]: 0.1 to 1 µM; IC50 [2, 12]: 0.1 to 1 µM |
| 1 to 5 | 0.1 to 1 |  |  | C[C@@H]1C[C@]2(CCO1)C1=C(CC(C)(C)CC1=O)Nc1n[nH]cc12 [Compound 899559] |  |
|  |  | 1 to 5 | 0.1 to 1 | C[C@H]1C[C@@]2(CCO1)C1=C(CC(C)(C)CC1=O)Nc1n[nH]cc12 [Compound 899560] |  |
|  |  | 0.1 to 1 | 0.1 to 1 | CC1(C(F)(F)F)CC(=O)C2=C(C1)Nc1n[nH]cc1C21CCOCC1 (stereo not drawn) [Compound 901458] |  |
|  |  | 0.1 to 1 | 0.1 to 1 | O=C1C2=C(Nc3n[nH]cc3C23CCOCC3)C2CCC1C2 (stereo not drawn) [Compound 901464] |  |
|  |  | ≤ 0.1 | ≤ 0.1 | CC1(C)CC(=O)C2=C(C1)Nc1n[nH]cc1C21CCN(S(=O)(=O)c2ccccc2F)CC1 [Compound 901465] | IC50 [1, 9]: 0.1 to 1 µM; IC50 [2, 10]: ≤ 0.1 µM |
|  |  | ≤ 0.1 | ≤ 0.1 | CC1(C)CC(=O)C2=C(C1)Nc1n[nH]cc1C21CCN(S(=O)(=O)c2cccc(F)c2)CC1 [Compound 901466] |  |
|  |  | ≤ 0.1 | ≤ 0.1 | Cn1cc(S(=O)(=O)N2CCC3(CC2)C2=C(CC(C)(C)CC2=O)Nc2n[nH]cc23)cn1 [Compound 901467] | IC50 [1, 9]: 1 to 5 µM; IC50 [2, 10]: 0.1 to 1 µM |
|  |  | ≤ 0.1 | ≤ 0.1 | COc1cccc(S(=O)(=O)N2CCC3(CC2)C2=C(CC(C)(C)CC2=O)Nc2n[nH]cc23)c1 [Compound 901468] | IC50 [1, 9]: 1 to 5 µM; IC50 [2, 10]: 0.1 to 1 µM |
|  |  |  |  | COc1ccc(S(=O)(=O)N2CCC3(CC2)C2=C(CC(C)(C)CC2=O)Nc2n[nH]cc23)cc1 [Compound 901469] | IC50 [1, 9]: 0.1 to 1 µM; IC50 [2, 10]: 0.1 to 1 µM |
|  |  | ≤ 0.1 | ≤ 0.1 | CC1(C)CC(=O)C2=C(C1)Nc1n[nH]cc1C21CCN(S(=O)(=O)C2CC2)CC1 [Compound 901470] | IC50 [1, 9]: 0.1 to 1 µM; IC50 [2, 10]: 0.1 to 1 µM |
|  |  | ≤ 0.1 | ≤ 0.1 | Cn1ccc(S(=O)(=O)N2CCC3(CC2)C2=C(CC(C)(C)CC2=O)Nc2n[nH]cc23)n1 [Compound 901471] | IC50 [1, 9]: 1 to 5 µM; IC50 [2, 10]: 0.1 to 1 µM |
| > 5 | > 5 |  |  | CO[C@H]1C[C@@]2(C1)C1=C(CC(C)(C)CC1=O)Nc1n[nH]cc12 [Compound 901472] |  |
| > 5 | > 5 |  |  | CO[C@H]1C[C@]2(C1)C1=C(CC(C)(C)CC1=O)Nc1n[nH]cc12 [Compound 901473] |  |
|  |  | ≤ 0.1 | ≤ 0.1 | CC1(C)CC(=O)C2=C(C1)Nc1n[nH]cc1C21CN(S(=O)(=O)c2ccccc2)C1 [Compound 901474] |  |
|  |  | 0.1 to 1 | 0.1 to 1 | O=C1C[C@@]2(CCOC2)CC2=C1C1(CCOCC1)c1c[nH]nc1N2 [Compound 901475] |  |
|  |  | 0.1 to 1 | 0.1 to 1 | O=C1C[C@]2(CCOC2)CC2=C1C1(CCOCC1)c1c[nH]nc1N2 [Compound 901476] |  |
| 1 to 5 | 0.1 to 1 |  |  | O=C1C[C@H](C(F)(F)F)CC2=C1C1(CCOCC1)c1c[nH]nc1N2 [Compound 901477] |  |
| 0.1 to 1 | 0.1 to 1 |  |  | O=C1C[C@@H](C(F)(F)F)CC2=C1C1(CCOCC1)c1c[nH]nc1N2 [Compound 901478] |  |
| 0.1 to 1 | ≤ 0.1 |  |  | CCC1(c2cccc(OC)c2)C2=C(CC(C)(C)CC2=O)Nc2n[nH]c(C(=O)OC)c21 (stereo not drawn) [Compound 901480] |  |
| 1 to 5 | 0.1 to 1 |  |  | CCC1(c2cccc(N3CC(C)(C)C3C(C)C)c2)C2=C(CC(C)(C)CC2=O)Nc2n[nH]cc21 (stereo not drawn) [Compound 902969] |  |

From patent US20250313563A1, “GLYCOGEN SYNTHASE KINASE 3 INHIBITORS AND USES THEREOF” (The Broad Institute, Inc., priority 2022, published 2025)
